Structures can show the parent of a compound that is named as a salt.
How the values were obtained:
[1] = system: rat formalin induced pain model; test: Rat formalin induced pain model (leg-raising times); type: in vivo, SD rats; settings: 100 mg/kg intragastric, formalin 1 h later; Mean ± SD, n=10
Description: Rat formalin induced pain model is used to test in vivo analgesic effect of hydrochloride of compound III-10.
Rat formalin induced pain model is established by Dubuisson and Dennis in 1977. It can simulate some characteristics of human pains after damages, and its persistent tension pain is similar to common clinical chronic pains. Its experimental results have excellent repeatability, and it is considered to be universally accepted pain model which is more reliable than short-term mechanical or thermal stimulation models. It has been generally used in investigation and determination of pain mechanism, pain physiology and pharmacology, screening of the analgesic effects of drugs and evaluation of analgesic drugs.
Test compounds are prepared to relevant doses with 0.5% CMC-Na before use.
Formaldehyde solution: batch number HN20041109, HuaDong reagent industrial company. In experiment, it is diluted to 5% formaldehyde solution with 0.9% sodium chloride injection.
90 SD rats of weight (240-350 g), half female and half male, are fed for I week to adapt the environment, with 5 in each cage during feeding, the rats are fed under standard condition during experiments with free access to water and food.
90 SD rats of weight 240-350 g are randomly divided into 9 groups which are negative control group, model group, gabapentin group, high, median and low dosage group of each compound respectively, with 10 rats in each group, half female and half male. Relevant test compounds are given by intragastric administration, and 5% formalin (50 ul) is subcutaneously injected at the left rear foot in 1 h to model, formation of pichu indicates a successful modeling. 0.5% (weight percentage) CMC-Na is given by intragastric administration in negative control group, and normal saline (50 ul) is subcutaneously injected at the bottom of right rear foot in 1 h. After modeling, the leg-raising times in 1-2 minutes and 5-6 minutes are observed. The time period 10-60 minutes are divided into 5 minutes intervals, and the leg-raising times of the first minute of each interval (10-11, 15-16, 20-21, 25-26, 30-31, 35-36, 40-41, 45-46, 50-51, 55-56, 60-61) are observed.
Measuring index is expressed as mean±standard deviation (Mean±SD), comparison is analyzed with One-way ANOVA.

5-HT2A receptor = target: T1, 5-HT2A receptor (Rattus norvegicus, UniProt P14842); test: In vitro competitive binding test to 5-HT2A receptor ([3H]-Ketanserin, rat cerebral cortex membranes); settings: 10 μmol/L compound; hydrochloride salts; rat cerebral cortex membrane; unit (I %); read-out: 5-HT2A affinity [3H]-Ketanserin (inhibition rate of radioligand binding)
T1 construct: The supernatant is discarded and the precipitate (membrane receptor) is stocked; from tissue; host or cells: SD rat cerebral cortex membranes
T1 sequence (P14842 whole entry): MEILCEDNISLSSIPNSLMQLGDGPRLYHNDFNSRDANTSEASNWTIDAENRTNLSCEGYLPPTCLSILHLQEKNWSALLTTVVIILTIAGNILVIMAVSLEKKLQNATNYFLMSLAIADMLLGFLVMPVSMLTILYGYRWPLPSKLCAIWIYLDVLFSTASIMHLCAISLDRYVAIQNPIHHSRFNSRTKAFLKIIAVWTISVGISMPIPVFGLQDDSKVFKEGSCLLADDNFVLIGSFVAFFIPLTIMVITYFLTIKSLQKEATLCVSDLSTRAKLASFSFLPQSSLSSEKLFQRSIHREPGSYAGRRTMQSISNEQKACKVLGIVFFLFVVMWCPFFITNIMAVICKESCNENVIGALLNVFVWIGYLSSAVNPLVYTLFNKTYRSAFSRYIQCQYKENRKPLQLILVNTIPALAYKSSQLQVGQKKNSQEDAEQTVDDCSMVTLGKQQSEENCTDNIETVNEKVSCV
Protocol: (§1) Animals: clean grade SD rats, female and male, 250-300 g, purchased from Nanjing QingLongshan animal breeding center.
(§2) Radioligand: [^3H]-8-OH-DPAT, [^3H]-Ketanserin, purchased from PerkinElmer company; 5-HT and Methysergide, purchased from Sigma company.
Preparation of 5-HT2A buffer solution: Tris (6.05 g) is dissolved in ultrapure water (1000 ml). PH is adjusted to 7.4 with HCl. Tris-HCl buffer solution (0.05M) is used.
(§3) Preparation of radioligand: 50 μl mother liquor is diluted to 5 ml with anhydrous ethanol, and stocked for use.
(§4) Preparation of non-labeling ligand: appropriate amounts of 5-HT and Methysergide are dissolved in ultrapure water to give solutions with final concentrations of 2*10^−5M respectively.
(§5) Preparation of solutions of various test drugs: appropriate amount of each drug is first diluted to 1 ml with ultrapure water as stock solution. When needed, 10 μl of the stock solution is diluted to 1 ml to reach a level of 10^−5M.
(§6) Rats are decapitated to get the brains. The target tissues (left and right cerebral cortex) are separated on ice, added with 10-fold volume (V/W) of ice-cold buffer, and homogenized with tissue Homogenizer for several seconds 3 times to form tissue homogenate. The tissue homogenate is centrifuged with low temperature superb centrifuge (12000 r/min) 3 times, with each for 20 minutes. The supernatant is discarded and the precipitate (membrane receptor) is stocked in −80° C. ultralow temperature freezer.
(§7) The membrane receptor is added with certain volume of ice-cold buffer and homogenized to make membrane receptor solutions at certain concentrations.
(§8) Various reaction solutions are added in the following sequences and ratios:
(§9) Total binding tube: 100 μl membrane receptor+100 μl buffer+10 μl radioligand
(§10) Non-specific tube: 100 μl membrane receptor+100 μl non-labeling ligand+10 μl radioligand
(§11) Test compound tube: 100 μl membrane receptor+100 μl drug solution+10 μl radioligand
(§12) Above tubes are put in 37° C. water bath immediately after finishing adding radioligand into each of them and then incubated for 25 min. After 25 min, the tubes are put in ice water to quench the reaction. Each tube is poured into suction filtration device to filter, and the filter membrane is washed with 5-10 ml ice-cold buffer twice. The filter membrane is dried in 85° C. oven, and then put into test tubes, and added with certain amount of scintillation liquid to soak overnight. Radioactivity is determined using liquid scintillation counter.
(§13) Each compound is tested in duplicate, and the tests are carried out independently twice.

hSERT = hSERT (Homo sapiens, UniProt P31645); test: In vitro inhibition of serotonin reuptake ([3H]-5-HT) in cells stably expressing hSERT; settings: for inhibition at 10 µM: read-out: Inhibition rates of SERT reuptake [3H]-5-HT
Sequence of hSERT (P31645 whole entry): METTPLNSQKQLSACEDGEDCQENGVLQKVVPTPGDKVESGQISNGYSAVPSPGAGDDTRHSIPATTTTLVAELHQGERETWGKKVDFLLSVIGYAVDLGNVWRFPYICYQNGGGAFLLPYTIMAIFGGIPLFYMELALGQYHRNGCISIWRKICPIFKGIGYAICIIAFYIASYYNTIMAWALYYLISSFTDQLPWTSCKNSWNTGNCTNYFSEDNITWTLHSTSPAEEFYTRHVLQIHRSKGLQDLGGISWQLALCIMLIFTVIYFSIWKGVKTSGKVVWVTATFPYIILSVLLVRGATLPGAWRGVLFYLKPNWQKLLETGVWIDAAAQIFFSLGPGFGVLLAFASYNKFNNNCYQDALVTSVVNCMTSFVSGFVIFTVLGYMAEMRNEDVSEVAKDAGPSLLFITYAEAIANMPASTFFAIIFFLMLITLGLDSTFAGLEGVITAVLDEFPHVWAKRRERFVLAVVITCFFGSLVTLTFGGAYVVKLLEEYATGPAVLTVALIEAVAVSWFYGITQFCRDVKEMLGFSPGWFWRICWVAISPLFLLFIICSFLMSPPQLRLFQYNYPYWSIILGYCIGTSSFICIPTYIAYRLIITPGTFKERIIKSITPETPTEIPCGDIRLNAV
Protocol: Positive control compound: fluoxetine.
Sample treatment: about 1 mg of compound is weighted and added with relative amount of DMSO to prepare 10^−2M stock solution. Before use, the stock solution is diluted with HBSS buffer to relative concentrations. Each sample is dissolved in DMSO completely. The dilution is clear and without obvious cloudy and formation of precipitate after adding with buffer.
(1) Cells which can stably express hSERT are seeded into 24-well plates respectively.
(2) Experiments are started when the cell confluence reaches 80-90%.
(3) Liquids in the plates are discarded, the plates are washed with PBS twice at room temperature.
(5) Plates are incubated at 37° C. for 10 min after slight oscillation.
(6) Then 20 μl radioisotope is added (cpm: about 20000).
(7) Plates are incubated at 37° C. for 5 min after slight oscillation.
(8) Liquids in the plates are discarded, the plates are washed with ice-cold PBS twice, all the liquids in the plates are removed away.
(9) NaOH (2M, 100 μl) is added into each well to lyse the cells. All the lysates are combined and put on GF/C glass fiber filter paper.
(10) The filter papers are dried and put in 0.5 ml centrifuge tube, 500 μl lipid soluble scintillation liquid are added. Radioactivity is determined by MicroBeta liquid scintillation counter. Each concentration is tested intriplicate, and tests are carried out independently twice.
Test concentration is 10 μmol/L. The positive drug provided is set as control (10 μmol/L) in each experiment. The experimental processes are the same as the above process.

5-HT1A receptor = target: T2, 5-HT1A receptor (Rattus norvegicus, UniProt P19327); test: In vitro competitive binding test to 5-HT1A receptor ([3H]-8-OH-DPAT, rat cerebral cortex membranes); settings: 10 μmol/L compound; hydrochloride salts; rat cerebral cortex membrane; unit (I %); read-out: 5-HT1A affinity [3H]-8-OH-DPAT (inhibition rate of radioligand binding)
T2 construct: The supernatant is discarded and the precipitate (membrane receptor) is stocked; from tissue; host or cells: SD rat cerebral cortex membranes
T2 sequence (P19327 1-422): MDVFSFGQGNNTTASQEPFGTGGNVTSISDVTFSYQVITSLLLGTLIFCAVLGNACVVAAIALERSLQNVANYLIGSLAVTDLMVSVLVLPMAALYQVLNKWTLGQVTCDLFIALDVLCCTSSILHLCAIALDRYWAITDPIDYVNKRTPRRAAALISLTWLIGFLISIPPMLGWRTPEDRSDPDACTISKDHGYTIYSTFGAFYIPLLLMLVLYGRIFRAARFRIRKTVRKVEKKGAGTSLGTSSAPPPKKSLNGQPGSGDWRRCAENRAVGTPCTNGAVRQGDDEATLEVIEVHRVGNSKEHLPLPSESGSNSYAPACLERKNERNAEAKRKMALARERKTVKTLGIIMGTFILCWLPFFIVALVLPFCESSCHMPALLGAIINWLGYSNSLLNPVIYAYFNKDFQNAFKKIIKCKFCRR
Protocol: as §1, §2
Preparation of 5-HT1A buffer solution: Tris-HCl buffer solution (0.05M, 1000 ml) is added with certain amount of ascorbic acid, pargyline and CaCl2, to give final concentrations of 0.1%(ascorbic acid), 10 um (pargyline) and 4 mM (CaCl2) separately.
as §3, §4, §5, §6, §7, §8, §9, §10, §11, §12, §13

[2] = Acute toxicity study, single drench to mice (LD50, Bliss method); settings: mouse, in vivo, oral, hydrochloride
Description: Bliss method is used for statistics.

[3] = system: Salmonella typhimurium histidine auxotrophic mutants TA97, TA98, TA100 and TA102; test: Bacterial reverse mutation test (Ames test); settings: −S9 and +S9, all dosages
Protocol: Strains: Salmonella typhimurium histidine auxotrophic mutants TA97, TA98, TA100 and TA102.
Results: the experiments include two parts of −S9 and +S9. In the test system without S9, TA98 5000 μg/dish has antibacterial activity, and in the test system with S9, TA97 5000 μg/dish has antibacterial activity. Other dosages have no antibacterial activity to any of the strains, and the growth background is excellent. […] Ames test is negative.

[4] = system: mice tail suspension test; test: Mice tail suspension test (immobility time); type: in vivo, KM mice; settings: 40 mg/kg intragastric, 1 h post dose, last 4 min of 6 min, n=10, mean ± SD
Protocol: Control drug: duloxetine hydrochloride, fluoxetine hydrochloride
A few days before the experiment, mice with qualified body weight are selected and divided into groups. The experiments are carried out in 2 days. In D1, mice are put on bar of tail suspension instrument for 6 min, the immobility time of the last 4 min are recorded. […] Blank control group, positive control group and each test compound group are set.
The mean values of immobility time for each group are calculated, the results are expressed as “mean±standard deviation”.

| Structure (SMILES) | inhibition at 10 µM (5-HT2A receptor) [%] | inhibition at 10 µM (hSERT) [%] | inhibition at 10 µM (5-HT1A receptor) [%] | also measured |
| --- | --- | --- | --- | --- |
| NCC1(CC(=O)O)CCCCC1 [Gabapentin, gabapentin, reference compound] |  |  |  | phase I times (leg-raising times) [1]: 11.60 ± 6.75 time; phase II times (leg-raising times) [1]: 74.7 ± 39.45 time |
| COc1ccccc1N1CCN(CCN(C)c2cccc(C#N)c2)CC1 [III-1, 3-((2-(4-(2-methoxyphenyl)piperazin-1-yl)ethyl)methylamino)benzonitrile] | 98.9 | 97.3 | 154 |  |
| CN(CCN1CCN(c2cccc(C(F)(F)F)c2)CC1)c1cccc(C#N)c1 [III-2, 3-(methyl(2-(4-(3-trifluoromethylphenyl)piperazin-1-yl)ethyl)amino)benzonitrile] | 131 | 97.8 | 119 |  |
| CN(CCN1CCN(c2cccc(Cl)c2)CC1)c1cccc(C#N)c1 [III-3, 3-((2-(4-(3-chlorophenyl)piperazin-1-yl)ethyl)methylamino)benzonitrile] | 107 | 98.3 | 155 |  |
| CN(CCN1CCN(c2cccc(Cl)c2Cl)CC1)c1cccc(C#N)c1 [III-4, 3-((2-(4-(2,3-dichlorophenyl)piperazin-1-yl)ethyl)methylamino)benzonitrile] | 104 | 93.4 | 126 |  |
| Cc1cccc(N2CCN(CCN(C)c3cccc(C#N)c3)CC2)c1C [III-5, 3-((2-(4-(2,3-dimethylphenyl)piperazin-1-yl)ethyl)methylamino)benzonitrile] | 134 | 99.7 | 121 |  |
| COc1c(Cl)ncnc1N1CCN(CCN(C)c2cccc(C#N)c2)CC1 [III-6, 3-((2-(4-(6-chloro-5-methoxylpyrimidin-1-yl)piperazin-1-yl)ethyl)methylamino)benzonitrile] | 84.5 | 98.3 | 91.6 |  |
| COc1cncnc1N1CCN(CCN(C)c2cccc(C#N)c2)CC1 [III-7] | 101 | 81.7 | 83.2 |  |
| CN(CCCN1CCN(c2cccc(C(F)(F)F)c2)CC1)c1cccc(C#N)c1 [III-8, 3-(methyl(3-(4-(3-trifluoromethylphenyl)piperazin-1-yl)propyl)amino)benzonitrile] | 111 | 98.3 | 108 | LD50 [2]: 1800 mg/kg; IC50 (hSERT): 246 ± 94 nM; inhibition effect to 5-HT reuptake compared with fluoxetine (hSERT): comparable to that of fluoxetine; Ames test (colony reverse mutations) [3]: negative |
| COc1ccccc1N1CCN(CCCN(C)c2cccc(C#N)c2)CC1 [III-9, 3-((3-(4-(2-methoxyphenyl)piperazin-1-yl)propyl)methylamino)benzonitrile] | 154 | 104 | 125 |  |
| Cc1cccc(N2CCN(CCCN(C)c3cccc(C#N)c3)CC2)c1C [III-11, 3-((3-(4-(2,3-dimethylphenyl)piperazin-1-yl)propyl)methylamino)benzonitrile] | 145 | 96.6 | 102 |  |
| COc1cncnc1N1CCN(CCCN(C)c2cccc(C#N)c2)CC1 [III-12] | 132 | 94.4 | 114 |  |
| CN(CCCN1CCN(c2cccc(Cl)c2Cl)CC1)c1cccc(C#N)c1 [III-13, 3-((3-(4-(2,3-dichlorophenyl)piperazin-1-yl)propyl)methylamino)benzonitrile] | 149 | 86.9 | 119 |  |
| CCN(CCCN1CCN(c2ccccc2OC)CC1)c1cccc(C#N)c1 [III-14, 3-((3-(4-(2-methoxyphenyl)piperazin-1-yl)propyl)ethylamino)benzonitrile] | 135 | 98.2 | 112 |  |
| CNCC[C@H](Oc1cccc2ccccc12)c1cccs1 [dutoxetine, duloxetine hydrochloride] |  |  |  | Immobility time ([4]; hydrochloride): 28.2 ± 27.3 S; Immobility time ([4]; listed as dutoxetine hydrochloride, hydrochloride): significantly decreased immobility time |
| CNCCC(Oc1ccc(C(F)(F)F)cc1)c1ccccc1 (stereo not shown) [fluoxetine] |  |  |  | Immobility time [4]: 69.9 ± 27.4 S; Immobility time ([4]; listed as fluoxetine hydrochloride): significantly decreased immobility time |

Source: US9238632B2, “3-cyanoanilinoalkylarylpiperazine derivative and use thereof in preparing drugs” (NHWA Pharma. Corporation, priority 2012, dated 2016)
